# Measured values reported in patent US8883228B2, “Composition for heart disease, its active ingredients, method to prepare same and uses thereof” (Tasly Pharmaceutical Group Co. Ltd., priority 2003, dated 2014).
# What was measured:
# [1] = tested on: vegetative nerve balance; experiment: Adjustment of vegetative nerve, heart rate variation (HRV); format: in vivo, human; settings: before and after treatment
# Source text: This test uses “Wenger-Chongzhongchongxion” vegetative nerve balance factor analysis to test the heart rate variation (HRV), that is, the fluctuation in the average heartbeat over a certain period of time or over a long time period in the R-R period. Data, including effects on the sympathetic and para-sympathetic nerves can be calculated, to reflect the regulatory function of the vegetative nervous system. […] A decrease in HRV means the sympathetic nerve is excited. It is directly proportional to the symptoms in coronary heart disease and the possibility of sudden death and irregularity of heartbeat. DSP can control over-excitement of the […] nerve and regulate the balance in the vegetative nerve.
# [2] = tested on: angina caused by coronary heart disease; experiment: Senior group angina, comparative analysis of DSP and Nifedipine; format: in vivo, human; settings: treatment of angina caused by coronary heart disease
# Method: Both DSP and Nifedipine can treat angina caused by coronary heart disease, but the latter has side effects which are not suitable for long-term use. In order to choose suitable drugs for patients with a need for long-term treatment of coronary heart disease, a comparative analysis of DSP and Nifedipine in the treatment of angina caused by coronary heart disease was carried out. DSP is made for angina. It activates blood circulation and relieves pain efficiently. […] Nifedipine is a short-term-effective calcium antagonist with a short half-life and functional time, so angina may occur during medication. […] Many reports state that long-term treatment with Nifedipine is harmful to coronary arteries. DSP can prevent decreased blood flow to the cardiac muscles and the development of atherosclerosis.
# [3] = tested on: chronic pulmonary heart disease; experiment: Healing effect on chronic pulmonary heart disease; format: in vivo, human; settings: treatment group versus control group
# Source text: The total efficacy rate of treatment group is 95% and that of the control group 76%, the difference of which is statistically significant (P[…]0.05). […] There was a significant difference in the efficacy of the two groups (X^2=4.46 and 4.95, P[…]0.05). […] There were obvious changes in blood flow in the Treatment group before and after treatment compared with that of the Control group (P[…]0.05). The blood viscosity of the control group decreased after treatment, but there was no statistical deviation.
# [4] = tested on: Wistar rat's artificial heart; experiment: Cardiac arrhythmia caused by exogenous free radicals, Langendorff perfusion; settings: 1 mg/L; ferrous sulfate/citrate free radicals alone up to 100%
# Source text: Langendorff perfusion device was used to pour ferrous sulfate (0.25 mmol/L)/citrate (1.0 mmol/L) into the Wistar rat's artificial heart. The model of free radicals causing heart rhythm irregularity was replicated to observe the effects of DSP.
compound,measurement,setting,value
O=[N+]([O-])O[C@H]1CO[C@H]2[C@@H]1OC[C@H]2O[N+](=O)[O-] [Isordil],SDNN in R-R,[1],no significant difference
same,percentage of y>+0.56 (vegetative nerve balance factor),[1],not significant
COC(=O)C1=C(C)NC(C)=C(C(=O)OC)C1c1ccccc1[N+](=O)[O-] [Nifedipine],side effects,[2],many side effects
OCCN(CCO)c1nc(N2CCCCC2)c2nc(N(CCO)CCO)nc(N3CCCCC3)c2n1 [persantin],total efficacy rate,[3],76%
COc1ccc(CCN(C)CCCC(C#N)(c2ccc(OC)c(OC)c2)C(C)C)cc1OC (centres unmarked) [verapamil],irregularity percentage (cardiac arrhythmia),[4],71.4%
